{"source": "patent US20170232026A1", "about": "“PHARMACEUTICAL COMPOSITION IN […] FOR VETERINARY USE AS A PROMOTER SYSTEM AND BIO-ADHESIVE IN ANT[…], AND METHOD FOR THE PRODUCTION THEREOF” (UNIVERSIDAD NACIONAL AUTONOMA DE MEXICO, priority 2014, published 2017)", "origin": "cited, not measured here", "data": [{"compound": "CC[C@H](C)[C@H]1O[C@]2(CC[C@@H]1C)C[C@@H]1C[C@@H](C/C=C(\\C)[C@@H](O[C@H]3C[C@H](OC)[C@@H](O[C@H]4C[C@H](OC)[C@@H](O)[C@H](C)O4)[C@H](C)O3)[C@@H](C)/C=C/C=C3\\CO[C@@H]4[C@H](O)C(C)=C[C@@H](C(=O)O1)[C@]34O)O2", "note": "[Ivermectin, 22, 23-dihydroavermectin B1a]", "values": [{"measurement": "solubility in ethanol at 95%", "setting": "ethanol at 95%", "value": "soluble"}, {"measurement": "solubility in methanol", "setting": "methanol", "value": "soluble"}, {"measurement": "solubility in water", "setting": "water", "value": "insoluble"}]}]}
